# Data published in paper PMC5007854, “β-Nitrostyrenes as Potential Anti-leishmanial Agents” (Frontiers in Microbiology, 2016).
# Read-outs that look alike come from different tables or passages of the source.
# Assays:
# Type in all cases: cell-based
# [1] = test system: Escherichia coli ATCC 25922; experiment: Broth microdilution antibacterial susceptibility (MIC/MBC); settings: Escherichia coli; for MIC: broth microdilution, 35°C, 24 h, read-out: MIC, Ec ATCC 25922; for MBC: ≥99.9% reduction of original inoculum, read-out: MBC, Ec ATCC 25922
# Excerpt: (§1) One reference each of the following species was used for their in vitro susceptibility to β-nitrostyrene in this study: Staphylococcus aureus ATCC 29213, Staphylococcus epidermidis ATCC 14990, Escherichia coli ATCC 25922, Pseudomonas aeruginosa ATCC 27853, Candida albicans ATCC 90028, Candida glabrata ATCC 90030, Aspergillus fumigatus ATCC 16424 and Aspergillus niger ATCC 16404. These strains were procured from the American Type Culture Collection (ATCC, Manassas, VA, USA).
# (§2) The antibacterial and antifungal activities of the β-nitrostyrenes were performed by broth microdilution methods as per the guidelines of Clinical and Laboratory Standard Institute (Wayne, [1998], [2008a],[b],[c]) by using Mueller-Hinton broth (MHB; Becton-Dickinson, Cockeysville, MD, USA) supplemented with calcium (25 mg/L) and magnesium (12.5 mg/L) for bacterial strains while as RPMI 1640 medium with L-glutamine and without sodium bicarbonate, buffered to pH 7.0 with 0.165 M 3-(N-morpholino) propanesulfonic acid (MOPS; both from Sigma) was used for fungal strains. Stock solutions were prepared in 100% dimethyl sulfoxide (DMSO; Sigma; distilled water was used for ciprofloxacin), with a final DMSO concentration of 1% (vol. per vol.) and two-fold serial dilutions were prepared in media in amounts of 100 μL per well in 96-well U-bottom microtiter plates (Tarsons, Kolkata, India) to yield twice the final concentration required for testing, which ranged from 64 to 0.12 μg/mL for β-nitrostyrenes and 16 to 0.03 μg/mL for ciprofloxacin as well as amphotericin B. Stock inoculum suspensions of the bacteria, Candida species and Aspergillus species were prepared in sterile normal saline (0.85%) containing 0.05% polysorbate 20 (NST) from overnight (3 to 5-day old for Aspergillus species) strains grown on Trypticase soy agar (TSA; Becton-Dickinson) and potato dextrose agar (Difco Laboratories, Detroit, MI, USA) respectively at 35°C. Inocula were verified for each assay by plating onto agar plates for colony enumeration. These suspensions were further diluted in the respective test medium and a 100 μl volume of this diluted inoculum was added to each well of the plate, resulting in a final inoculum concentration of approximately 5 × 10^5 CFU/mL for bacter1ia, (Wayne, [2008a]) approximately 2.5 × 10^4 CFU/ml for Candida species (Pfaller et al., [2004]) while as 0.4 × 10^4 to 5 × 10^4 CFU/mL for Aspergillus species (Wayne, [2008c]). Untreated growth control, vehicle control (DMSO) and sterility control wells were included for each isolate tested. Ciprofloxacin and amphotericin B served as the standard drug controls for bacterial and fungal strains, respectively. The microtiter plates were incubated at 35°C for 24 h for bacterial strains and 48 h for fungal strains. The plates were read visually and the minimum inhibitory concentration (MIC) was defined as the lowest concentration of test sample that prevented visible growth with respect to the growth control.
# (§3) The minimum bactericidal concentration (MBC) and minimum fungicidal concentration (MFC) were determined by plating 100 μl volumes on agar plates from the wells showing no visible growth (clear MIC well). The plates were incubated as described above in MIC measurements. […] All experiments were conducted twice in duplicates on separate occasions with freshly prepared inoculums and stock solutions.
# [2] = test system: Pseudomonas aeruginosa ATCC 27853; experiment: as above; settings: Pseudomonas aeruginosa; for MIC: broth microdilution, 35°C, 24 h, read-out: MIC, Pa ATCC 27853; for MBC: ≥99.9% reduction of original inoculum, read-out: MBC, Pa ATCC 27853
# Excerpt: as §1, §2, §3
# [3] = test system: Staphylococcus aureus ATCC 29213; experiment: as above; settings: for MIC / MBC: Staphylococcus aureus; for MIC: read-out: MIC, Sa ATCC 29213; for MBC: ≥99.9% reduction of original inoculum, read-out: MBC, Sa ATCC 29213
# Excerpt: as §1, §2, §3
# [4] = test system: Staphylococcus epidermidis ATCC 14990; experiment: as above; settings: for MIC / MBC: Staphylococcus epidermidis; for MIC: read-out: MIC, Se ATCC 14990; for MBC: ≥99.9% reduction of original inoculum, read-out: MBC, Se ATCC 14990
# Excerpt: as §1, §2, §3
# [5] = test system: Aspergillus fumigatus ATCC 16424; experiment: Broth microdilution antifungal susceptibility (MIC/MFC); settings: Aspergillus fumigatus; for MIC: broth microdilution, 35°C, 48 h, read-out: MIC, Af ATCC 16424; for MFC: ≥99.9% reduction of original inoculum, read-out: MFC, Af ATCC 16424
# Excerpt: as §1, §2, §3
# [6] = test system: Aspergillus niger ATCC 16404; experiment: as above; settings: Aspergillus niger; for MIC: broth microdilution, 35°C, 48 h, read-out: MIC, An ATCC 16404; for MFC: ≥99.9% reduction of original inoculum, read-out: MFC, An ATCC 16404
# Excerpt: as §1, §2, §3
# [7] = test system: Candida albicans ATCC 90028; experiment: as above; settings: Candida albicans; for MIC: broth microdilution, 35°C, 48 h, read-out: MIC, Ca ATCC 90028; for MFC: ≥99.9% reduction of original inoculum, read-out: MFC, Ca ATCC 90028
# Excerpt: as §1, §2, §3
# [8] = test system: Candida glabrata ATCC 90030; experiment: as above; settings: Nakaseomyces glabratus; for MIC: broth microdilution, 35°C, 48 h, read-out: MIC, Cg ATCC 90030; for MFC: ≥99.9% reduction of original inoculum, read-out: MFC, Cg ATCC 90030
# Excerpt: as §1, §2, §3
# [9] = ATCC29213, 24 h, broth microdilution, 35°C, 24 h
# [10] = ATCC14990, 24 h, broth microdilution, 35°C, 24 h
# [11] = ATCC29213, broth microdilution, 35°C, 24 h
# [12] = ATCC14990, broth microdilution, 35°C, 24 h
# [13] = broth microdilution, 35°C, 24 h
Structure (SMILES),"MIC ([1]; ATCC25922, 24 h)",MBC ([1]; ATCC25922),"MIC ([2]; ATCC27853, 24 h)",MBC ([2]; ATCC27853),"MIC [3, 9]",MBC ([3]; ATCC29213),"MIC [4, 10]",MBC ([4]; ATCC14990),"MIC ([5]; ATCC16424, 48 h)",MFC ([5]; ATCC16424),"MIC ([6]; ATCC16404, 48 h)",MFC ([6]; ATCC16404),"MIC ([7]; ATCC90028, 48 h)",MFC ([7]; ATCC90028),"MIC ([8]; ATCC90030, 48 h)",MFC ([8]; ATCC90030),further results
"COc1ccc(/C=C/[N+](=O)[O-])cc1 [Compound 13, 1-methoxy-4-((E)-2-nitrovinyl) benzene]",> 64 mg/L,> 64 mg/L,> 64 mg/L,> 64 mg/L,64 mg/L,64 mg/L,32 mg/L,32 mg/L,64 mg/L,> 64 mg/L,64 mg/L,64 mg/L,64 mg/L,64 mg/L,32 mg/L,32 mg/L,–
"O=[N+]([O-])/C=C/c1cccc(O)c1 [Compound 19, 3-((E)-2-nitrovinyl) phenol]",–,> 64 mg/L,–,> 64 mg/L,–,> 64 mg/L,–,> 64 mg/L,–,> 64 mg/L,–,64 mg/L,–,> 64 mg/L,–,16 mg/L,"MIC ([1]; ATCC25922): > 64 mg/L; MIC ([2]; ATCC27853): > 64 mg/L; MIC [3, 11]: > 64 mg/L; MIC [4, 12]: 64 mg/L; MIC ([5]; ATCC16424): 64 mg/L; MIC ([6]; ATCC16404): 64 mg/L; MIC ([7]; ATCC90028): 64 mg/L; MIC ([8]; ATCC90030): 16 mg/L"
"CC/C(=C\c1ccc(Cl)cc1)[N+](=O)[O-] [Compound 3, 1-chloro-4-((E)-2-nitrobut-1-enyl) benzene]",–,> 64 mg/L,–,> 64 mg/L,2 to 32 mg/L,4 mg/L,2 to 16 mg/L,2 mg/L,–,64 mg/L,–,32 mg/L,–,> 64 mg/L,–,> 64 mg/L,"MIC, Sa ATCC 29213 [3, 13]: 4 mg/L; MIC, Se ATCC 14990 [4, 13]: 2 mg/L"
"O=[N+]([O-])/C=C/c1ccc(Cl)cc1 [Compound 1, 1-chloro-4-((E)-2-nitrovinyl) benzene]",32 mg/L,32 mg/L,32 mg/L,64 mg/L,32 mg/L,32 mg/L,16 mg/L,16 mg/L,8 mg/L,8 mg/L,4 mg/L,4 mg/L,32 mg/L,32 mg/L,4 mg/L,4 mg/L,–
"O=C(O)c1cn(C2CC2)c2cc(N3CCNCC3)c(F)cc2c1=O [Cipro, Ciprofloxacin, reference compound]",< 0.03 mg/L,< 0.03 mg/L,0.25 mg/L,1 mg/L,0.25 mg/L,0.5 mg/L,0.25 mg/L,0.25 mg/L,–,–,–,–,–,–,–,–,–
"C/C(=C\c1ccc(Cl)cc1)[N+](=O)[O-] [Compound 2, 1-chloro-4-((E)-2-nitroprop-1-enyl) benzene]",–,> 64 mg/L,–,> 64 mg/L,–,> 64 mg/L,–,32 mg/L,–,> 64 mg/L,–,> 64 mg/L,–,> 64 mg/L,–,32 mg/L,"MIC ([1]; ATCC25922): > 64 mg/L; MIC ([2]; ATCC27853): > 64 mg/L; MIC [3, 11]: > 64 mg/L; MIC [4, 12]: 32 mg/L; MIC ([5]; ATCC16424): > 64 mg/L; MIC ([6]; ATCC16404): 64 mg/L; MIC ([7]; ATCC90028): > 64 mg/L; MIC ([8]; ATCC90030): 32 mg/L"
"O=[N+]([O-])/C=C/c1c[nH]c2ccccc12 [Compound 28, 3-((E)-2-nitrovinyl)-1H-indole]",64 mg/L,> 64 mg/L,> 64 mg/L,> 64 mg/L,64 mg/L,> 64 mg/L,64 mg/L,64 mg/L,16 mg/L,16 mg/L,8 mg/L,16 mg/L,32 mg/L,32 mg/L,16 mg/L,16 mg/L,–
"CN(C)c1ccc(/C=C/[N+](=O)[O-])cc1 [Compound 4, N,N-dimethyl-4-((E)-2-nitrovinyl) benzenamine]",> 64 mg/L,> 64 mg/L,> 64 mg/L,> 64 mg/L,> 64 mg/L,> 64 mg/L,> 64 mg/L,> 64 mg/L,64 mg/L,> 64 mg/L,64 mg/L,> 64 mg/L,> 64 mg/L,> 64 mg/L,32 mg/L,32 mg/L,–
"O=[N+]([O-])/C=C/c1ccc(O)cc1 [Compound 16, 4-((E)-2-nitrovinyl) phenol]",64 mg/L,> 64 mg/L,> 64 mg/L,> 64 mg/L,64 mg/L,> 64 mg/L,64 mg/L,64 mg/L,16 mg/L,16 mg/L,8 mg/L,16 mg/L,32 mg/L,32 mg/L,16 mg/L,16 mg/L,–
"CC/C(=C\c1ccc(N(C)C)cc1)[N+](=O)[O-] [Compound 6, N,N-dimethyl-4-((E)-2-nitrobut-1-enyl) benzenamine]",> 64 mg/L,> 64 mg/L,> 64 mg/L,> 64 mg/L,> 64 mg/L,> 64 mg/L,> 64 mg/L,> 64 mg/L,> 64 mg/L,> 64 mg/L,64 mg/L,> 64 mg/L,> 64 mg/L,> 64 mg/L,32 mg/L,32 mg/L,–
"C/C(=C\c1ccc(N(C)C)cc1)[N+](=O)[O-] [Compound 5, N,N-dimethyl-4-((E)-2-nitroprop-1-enyl) benzenamine]",> 64 mg/L,> 64 mg/L,> 64 mg/L,> 64 mg/L,> 64 mg/L,> 64 mg/L,> 64 mg/L,> 64 mg/L,> 64 mg/L,> 64 mg/L,64 mg/L,> 64 mg/L,> 64 mg/L,> 64 mg/L,32 mg/L,32 mg/L,–
